According to article PMC3794980, “Identification of Conserved and HLA Promiscuous DENV3 T-Cell Epitopes” (PLoS Neglected Tropical Diseases, 2013):
pIC50: −log10 of the molar value. Like-named read-outs stand apart in the source and are kept apart here.

Experiments:
Test in all cases: biochemical
Assay type in all cases: binding
DRB1*0101 = DRB1*0101 (Homo sapiens, UniProt P01903+P01911, A100R/D57E/F55L/F60I/F76Y/I96L/L162R/M171V/P40L/Q125E/R42F/V115G/Y59C)
DRB1*0401 = DRB1*0401 (Homo sapiens, UniProt P01903+P01911, A100K/A169T/F76Y/I96L/K127E/L162R/M171V/N62H/P40V/Q125Y/R42H/S133A/S149N/S66Y/V115G/V209L/W38E)
DRB1*1101 = DRB1*1101 (Homo sapiens, UniProt P01903+P01911, A100R/A169T/A87E/I96F/K41T/L162R/M171V/P40S/Q125H/Q178H/Q39Y/Q99D/R42S/S66Y/T262R/V115G/W38E)
Chain of DRB1*1101 (P01903 26-254, other chains not shown): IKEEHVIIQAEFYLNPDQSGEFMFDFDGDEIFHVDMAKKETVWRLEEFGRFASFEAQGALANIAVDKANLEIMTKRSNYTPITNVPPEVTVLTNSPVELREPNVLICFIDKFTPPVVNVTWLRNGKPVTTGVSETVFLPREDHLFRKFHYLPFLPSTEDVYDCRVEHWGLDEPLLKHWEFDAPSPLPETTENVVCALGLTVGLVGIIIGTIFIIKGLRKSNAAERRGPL

DRB1*0301 = DRB1*0301 (Homo sapiens, UniProt P01903+P01911, A100K/A102G/A103R/A169T/F55Y/I96L/K41T/L162R/M171V/P40S/Q125H/Q178H/Q39Y/R42S/S66N/T106N/T262R/W38E/Y61H)
Chain of DRB1*0301 (P01903 26-254, other chains not shown): as above

DRB5*0101 = DRB5*0101 (Homo sapiens, UniProt P01903+Q30154)
DRB3*0101 = DRB3*0101 (Homo sapiens, UniProt P01903+P79483)
DRB1*1302 = DRB1*1302 (Homo sapiens, UniProt P01903+P01911, A100E/A169T/K41T/L162R/M171V/P40S/Q125H/Q178H/Q39Y/Q99D/R42S/S66N/T262R/V115G/W38E/Y61H); conditions: for IC50: competitive inhibition of radiolabeled standard peptide, read-out: Binding Affinity (nM) DRB1*1302
Chain of DRB1*1302 (P01903 26-254 limits assumed, other chains not shown): as the sequence (P01903 26-254, other chains not shown) above

DRB1*0701 = DRB1*0701 (Homo sapiens, UniProt P01903+P01911, A100R/A102G/A103Q/D57E/D86V/E43K/F76Y/K127E/L162R/M171V/P40G/Q125H/Q99D/R33Q/R42Y/R54Q/S133A/S66F/T210M/V115G/Y107V/Y59L/Y89S)
DRB1*0404 = DRB1*0404 (Homo sapiens, UniProt P01903+P01911, A100R/A169T/F76Y/I96L/K127E/L162R/M171V/N62H/P40V/Q125Y/R42H/S133A/S149N/S66Y/V209L/W38E)
DRB1*0405 = DRB1*0405 (Homo sapiens, UniProt P01903+P01911, A100R/A169T/D86S/F76Y/I96L/K127E/L162R/M171V/N62H/P40V/Q125Y/R42H/S133A/S149N/S66Y/V115G/V209L/W38E)
DRB1*1501 = DRB1*1501 (Homo sapiens, UniProt P01903+P01911)
DRB1*0901 = DRB1*0901 (Homo sapiens, UniProt P01903+P01911, A100R/A103E/D57H/D86V/F55Y/F60I/F76Y/I96F/K127E/L162R/M171V/P40D/Q125H/Q99R/R33Q/R42F/S133A/S66N/T210M/V115G/W38K/Y107V/Y59G/Y89S); conditions: for IC50: competitive inhibition of radiolabeled standard peptide, read-out: Binding Affinity (nM) DRB1*0901
DRB1*0802 = DRB1*0802 (Homo sapiens, UniProt P01903+P01911, A100R/A103L/A169T/F76Y/H45Y/I96F/K41T/L162R/M171V/P40S/Q125H/Q178H/Q39Y/Q99D/R218S/R42G/S66Y/V115G/W38E)
DRB4*0101 = DRB4*0101 (Homo sapiens, UniProt P01903+P13762, G164S)

SMILES	pIC50 (DRB1*0101)	pIC50 (DRB1*0401)	pIC50 (DRB1*1101)	pIC50 (DRB1*0301)	pIC50 (DRB5*0101)	pIC50 (DRB3*0101)	IC50 (DRB1*1302; '-' distinct from ND)	pIC50 (DRB1*0701)	pIC50 (DRB1*0404)	pIC50 (DRB1*0405)	pIC50 (DRB1*1501)	IC50 (DRB1*0901; '-' distinct from ND)	pIC50 (DRB1*0802)	pIC50 (DRB4*0101)	pIC50 (DRB1*1302)	pIC50 (DRB1*0901)	IC50 (DRB1*1302; DRB1*1302)	IC50 (DRB1*0901; DRB1*0901)
CC[C@H](C)[C@H](NC(=O)[C@H](CCCCN)NC(=O)[C@H](C)NC(=O)[C@H](CCCCN)NC(=O)CNC(=O)[C@H](Cc1c[nH]c2ccccc12)NC(=O)[C@@H](N)[C@@H](C)O)C(=O)N[C@H](C(=O)N[C@H](C(=O)N[C@@H](C)C(=O)N[C@@H](CCC(=O)O)C(=O)N[C@H](C(=O)N[C@@H](CCC(N)=O)C(=O)N[C@@H](CC(N)=O)C(=O)N[C@@H](CO)C(=O)O)[C@@H](C)O)[C@@H](C)O)C(C)C [NS1 117-131]	5.96	7.55	4.74	5.38	5.41	6.27	1240 nM	5.17	6.16	6.55	5.43	2630 nM	–	–	–	–	–	–
CC(C)C[C@H](NC(=O)[C@@H](NC(=O)CNC(=O)[C@H](CC(N)=O)NC(=O)[C@H](CO)NC(=O)[C@H](Cc1c[nH]c2ccccc12)NC(=O)[C@H](CC(C)C)NC(=O)[C@@H](NC(=O)[C@H](Cc1c[nH]cn1)NC(=O)[C@H](CO)NC(=O)[C@H](CCCCN)NC(=O)[C@@H]1CCCN1C(=O)[C@@H](N)Cc1c[nH]c2ccccc12)[C@@H](C)O)C(C)C)C(=O)N[C@@H](CCC(=O)O)C(=O)N[C@@H](CO)C(=O)O [NS1 225-239]	5.41	6.49	4.89	6.28	–	–	59 nM	5.24	5.41	5.35	5.38	9390 nM	5.32	5.18	–	–	–	–
CC[C@H](C)[C@H](NC(=O)[C@H](CCC(=O)O)NC(=O)CNC(=O)[C@@H](NC(=O)[C@@H](NC(=O)[C@@H](NC(=O)[C@H](CCC(N)=O)NC(=O)[C@H](Cc1ccccc1)NC(=O)[C@@H](NC(=O)CNC(=O)[C@@H]1CCCN1C(=O)[C@H](CCSC)NC(=O)[C@@H](NC(=O)[C@H](CCC(N)=O)NC(=O)[C@@H](N)Cc1ccccc1)[C@@H](C)O)[C@@H](C)O)[C@@H](C)O)[C@@H](C)O)[C@@H](C)O)C(=O)O [NS3 109-123]	6.83	6.65	5.41	4.78	5.56	5.38	–	5.99	6.02	–	5.66	–	6.25	–	5.15	5.73	–	–
CC[C@H](C)[C@H](NC(=O)[C@@H]1CCCN1C(=O)[C@H](CC(C)C)NC(=O)CNC(=O)[C@@H](N)CCCCN)C(=O)N[C@@H](CCCNC(=N)N)C(=O)N[C@@H](Cc1ccc(O)cc1)C(=O)N[C@@H](CCC(N)=O)C(=O)N[C@H](C(=O)N[C@H](C(=O)N[C@@H](C)C(=O)N[C@H](C(=O)N[C@@H](CCCCN)C(=O)N[C@@H](CO)C(=O)N[C@@H](CCC(=O)O)C(=O)O)[C@@H](C)O)[C@@H](C)O)[C@@H](C)O [NS3 237-251]	6.96	7.89	6.09	5.74	7.89	4.72	2620 nM	5.52	6.51	–	6.20	928 nM	7.44	8.26	–	–	–	–
CC[C@H](C)[C@H](NC(=O)[C@H](C)NC(=O)[C@H](C)NC(=O)[C@H](C)NC(=O)[C@@H](N)CCC(=O)O)C(=O)N[C@@H](Cc1ccccc1)C(=O)N[C@@H](CCSC)C(=O)N[C@H](C(=O)N[C@@H](C)C(=O)N[C@H](C(=O)N1CCC[C@H]1C(=O)N1CCC[C@H]1C(=O)NCC(=O)N[C@H](C(=O)N[C@@H](C)C(=O)O)[C@@H](C)O)[C@@H](C)O)[C@@H](C)O [NS3 309-323]	7.57	8.62	7.03	–	5.60	4.93	–	7.32	6.46	7.49	6.44	–	7.51	8.04	5.58	6.89	–	–
CC[C@H](C)[C@H](NC(=O)[C@H](Cc1ccc(O)cc1)NC(=O)CNC(=O)[C@H](CC(C)C)NC(=O)[C@H](CCCCN)NC(=O)[C@H](Cc1c[nH]cn1)NC(=O)[C@H](CC(C)C)NC(=O)CNC(=O)[C@H](CCC(=O)O)NC(=O)CNC(=O)[C@H](CCC(=O)O)NC(=O)[C@@H](NC(=O)CNC(=O)[C@H](CO)NC(=O)[C@H](Cc1ccc(O)cc1)NC(=O)[C@H](CO)NC(=O)[C@@H](N)CC(N)=O)C(C)C)C(=O)O [NS5 501-517]	8.15	7.13	5.09	5.35	5.95	5.53	–	7.74	5.36	5.62	5.52	–	6.08	–	–	–	4990 nM	–
CSCC[C@H](NC(=O)[C@H](CCC(N)=O)NC(=O)[C@H](C)NC(=O)[C@H](Cc1ccc(O)cc1)NC(=O)[C@H](C)NC(=O)[C@H](CCCCN)NC(=O)CNC(=O)[C@H](CC(C)C)NC(=O)[C@H](CS)NC(=O)[C@H](C)NC(=O)[C@@H](NC(=O)[C@H](CCC(=O)O)NC(=O)[C@H](CCCNC(=N)N)NC(=O)[C@H](CC(C)C)NC(=O)[C@@H](N)CO)[C@@H](C)O)C(=O)N[C@@H](Cc1c[nH]c2ccccc12)C(=O)N[C@H](C(=O)O)[C@@H](C)O [NS5 747-763]	7.27	–	7.10	5.24	–	5.08	–	5.53	6.95	7.41	6.78	–	6.26	5.33	–	–	–	393 nM
CC[C@H](C)[C@H](NC(=O)[C@H](C)NC(=O)[C@H](CC(N)=O)NC(=O)[C@H](CO)NC(=O)[C@H](C)NC(=O)[C@H](CC(C)C)NC(=O)[C@H](CCCNC(=N)N)NC(=O)[C@H](CC(C)C)NC(=O)[C@H](CC(=O)O)NC(=O)[C@H](CCCNC(=N)N)NC(=O)[C@H](CCCNC(=N)N)NC(=O)[C@H](Cc1c[nH]cn1)NC(=O)[C@H](Cc1ccccc1)NC(=O)[C@H](Cc1ccc(O)cc1)NC(=O)[C@@H](N)CCSC)C(=O)O [NS5 765-779]	7.39	8.33	7.77	5.89	6.14	–	–	7.74	7.47	7.74	6.93	–	8.11	–	8.31	7.21	–	–
CC[C@H](C)[C@H](NC(=O)[C@H](C)N)C(=O)N[C@@H](CCC(N)=O)C(=O)N[C@@H](CCC(N)=O)C(=O)N[C@H](C(=O)N[C@@H](CCCNC(=N)N)C(=O)N[C@@H](CO)C(=O)N[C@@H](CC(C)C)C(=O)N[C@H](C(=O)NCC(=O)N[C@@H](CC(N)=O)C(=O)N[C@@H](CCC(=O)O)C(=O)N[C@@H](CCC(=O)O)C(=O)N[C@@H](Cc1ccccc1)C(=O)N[C@@H](CC(C)C)C(=O)N[C@@H](CC(=O)O)C(=O)N[C@@H](Cc1ccc(O)cc1)C(=O)O)[C@@H](C)CC)C(C)C [NS5 866-882]	8.37	7.92	6.38	6.75	–	5.09	–	–	–	–	6.83	–	–	5.69	6.27	7.18	–	–
